A short description of this data set: tolerated dose of octreotide. The conditions noted are these: in vivo. As to the method: Thus for octreotide, GI tumours may be treated initially with 0.05 mg once or twice a day by sub-cutaneous injection. Dosage can be increased to 0.2 mg three times daily. For acromegaly daily doses of from 100 to 300 μg s.c. may be used. Octreotide is tolerated at least to 1 mg.

The text below walks through data of patent US6066616A, “Somatostatin analogue composition and use in treating breast cancer” (Novartis AG, priority 1987, dated 2000).

Where only a bound is given, the exact number is not on record here.

As to `C[C@@H](O)[C@@H]1NC(=O)[C@H](CCCCN)NC(=O)[C@@H](Cc2c[nH]c3ccccc23)NC(=O)[C@H](Cc2ccccc2)NC(=O)[C@@H](NC(=O)[C@H](N)Cc2ccccc2)CSSC[C@@H](C(=O)N[C@H](CO)[C@@H](C)O)NC1=O` [Octreotide, octreotide], the tolerated dose is given as at least 1 mg.
